What all share (test): biochemical
Common to all, as to design: in vitro kinase inhibition assay

Experiment [1] deals with DYRK1a (Homo sapiens, UniProt Q13627).
The target of experiment [2] is CDK9/cyclin T (Homo sapiens, UniProt P50750). The note with it: read-out: NU2058 % inhibition.
Experiment [3] concerns the target T1, CDK5/p25 (Homo sapiens, UniProt Q00535).
T1 construct: with p25
To be noted: read-out: NU2058 % inhibition.

pIC50: −log10 of the molar value.

T1 sequence (Q00535 whole entry): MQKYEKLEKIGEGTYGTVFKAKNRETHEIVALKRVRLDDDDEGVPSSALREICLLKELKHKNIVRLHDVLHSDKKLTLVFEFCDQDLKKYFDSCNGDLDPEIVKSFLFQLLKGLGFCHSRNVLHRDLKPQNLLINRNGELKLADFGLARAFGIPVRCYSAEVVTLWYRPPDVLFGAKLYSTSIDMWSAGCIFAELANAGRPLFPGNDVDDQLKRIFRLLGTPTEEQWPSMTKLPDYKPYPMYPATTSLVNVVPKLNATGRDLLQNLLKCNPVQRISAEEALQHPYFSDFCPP
T1 sequence (Q15078 whole entry partner): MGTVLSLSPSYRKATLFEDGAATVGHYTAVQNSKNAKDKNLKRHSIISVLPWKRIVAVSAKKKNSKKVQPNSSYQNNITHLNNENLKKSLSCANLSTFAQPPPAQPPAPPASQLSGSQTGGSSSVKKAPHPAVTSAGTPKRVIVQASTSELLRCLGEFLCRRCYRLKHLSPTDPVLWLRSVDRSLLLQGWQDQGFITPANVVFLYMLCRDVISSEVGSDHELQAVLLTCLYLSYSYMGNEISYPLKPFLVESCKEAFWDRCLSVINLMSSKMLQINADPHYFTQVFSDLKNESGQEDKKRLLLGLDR
Sequence of CDK9/cyclin T (P50750 whole entry): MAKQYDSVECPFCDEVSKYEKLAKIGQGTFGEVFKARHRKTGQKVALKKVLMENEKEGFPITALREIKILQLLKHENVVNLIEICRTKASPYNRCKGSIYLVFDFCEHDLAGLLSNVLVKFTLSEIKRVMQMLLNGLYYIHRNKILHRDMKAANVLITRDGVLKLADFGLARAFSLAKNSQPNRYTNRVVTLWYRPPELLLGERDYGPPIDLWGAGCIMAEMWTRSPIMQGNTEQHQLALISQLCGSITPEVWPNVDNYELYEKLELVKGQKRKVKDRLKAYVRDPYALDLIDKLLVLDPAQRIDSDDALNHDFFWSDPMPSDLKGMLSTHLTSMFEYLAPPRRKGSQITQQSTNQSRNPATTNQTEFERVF
Sequence of CDK9/cyclin T (O60563 whole entry partner): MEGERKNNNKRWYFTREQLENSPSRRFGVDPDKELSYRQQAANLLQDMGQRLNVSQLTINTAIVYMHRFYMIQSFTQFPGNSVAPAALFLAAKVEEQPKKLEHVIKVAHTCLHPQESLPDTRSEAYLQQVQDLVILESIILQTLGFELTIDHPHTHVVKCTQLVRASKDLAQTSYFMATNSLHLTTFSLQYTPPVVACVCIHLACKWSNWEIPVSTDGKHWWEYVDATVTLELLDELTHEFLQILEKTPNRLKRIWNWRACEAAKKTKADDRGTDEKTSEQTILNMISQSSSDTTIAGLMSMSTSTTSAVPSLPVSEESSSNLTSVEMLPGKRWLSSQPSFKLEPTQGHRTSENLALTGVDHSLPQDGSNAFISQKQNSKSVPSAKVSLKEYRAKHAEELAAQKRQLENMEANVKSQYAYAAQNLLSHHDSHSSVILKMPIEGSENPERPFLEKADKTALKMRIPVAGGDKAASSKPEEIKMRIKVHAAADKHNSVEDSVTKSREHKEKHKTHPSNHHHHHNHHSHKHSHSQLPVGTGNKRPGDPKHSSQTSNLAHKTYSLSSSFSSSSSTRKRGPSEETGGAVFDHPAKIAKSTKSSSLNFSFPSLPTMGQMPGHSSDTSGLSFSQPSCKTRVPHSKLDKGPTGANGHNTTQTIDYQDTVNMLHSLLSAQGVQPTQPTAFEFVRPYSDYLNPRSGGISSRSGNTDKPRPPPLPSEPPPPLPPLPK

By pIC50 is commonly meant the negative decadic logarithm of the IC50, by convention in mol/L. High values mean a small IC50, low ones a large IC50. For `NS(=O)(=O)c1ccc(Nc2nc(OCC3CCCCC3)c3nc[nH]c3n2)cc1` [NU6102], the pIC50 in experiment [1] was 6.02.
For orientation: inhibition means the drop in the measured response relative to a control, in per cent. In the case of `Nc1nc(OCC2CCCCC2)c2nc[nH]c2n1` [NU2058], the inhibition at 100 µM in experiment [2] stood at 43%; in experiment [3], 50%.

For the origin of these results see PMC2816653, “Pre-clinical evaluation of cyclin-dependent kinase 2 and 1 inhibition in anti-estrogen-sensitive and resistant breast cancer cells” (British Journal of Cancer, 2009).
